The source of these data is patent publication US20250129070A1, “BIFUNCTIONAL ANDROGEN RECEPTOR COMPOUNDS” (priority 2023, published 2025).

Some results are limits rather than exact numbers.

In this experiment the test system is AR / CBP ternary complex. Put plainly: Ternary complex formation assay (sandwich ELISA, AR capture / CBP detection) in VCaP cell lysates. It is filed as cell-based. The conditions noted are these: 1.5 hours treatment, sandwich ELISA (AR capture, CBP or p300 detection). Here is the method:
Preparation of Mouse Anti-AR Antibody Coated 96 Well Plates
Black MaxiSorp plates: coat with 50 μL of mouse 1/50 diluted AR antibody (Monoclonal Antibody (AR 441 from Thermo Fisher); diluted in phosphate buffered saline (PBS). Spin the liquid to the bottom of the wells, if necessary. Incubate overnight at 4° C. Next day, wash 3 times with 200 μL of TBST. Block with 200 μL of blocking buffer (5% BSA in TBST) at room temperature for 2 hours (BSA: A4503 or A2153 from Sigma). Wash plates 3 times with TBST. Plates are ready for lysates Preparation of dimerizer treated lysates
Culture cells in 96 wells at 50K VCaP cells/well for at least 3 days. Plate in 5% Omega charcoal stripped FBS in total volume of 200 uL. Treat with bifunctional for 1.5 hours by adding 1 μL of 200× stock in DMSO. Aspirate media/compound. Add and pipet-to-mix 70 μL of 1× AlphaLisa Lysis Buffer to each well (Perkin Elmer, AlphaLISA SureFire Ultra, diluted in water). Pipet up and down when adding lysis buffer to disrupt cells. Let lysis proceed for 30 min at 4° C.
Incubate for 1 hour at room temperature. Flick out the lysates. Wash 3 times with TBST. Add 75 μL of rabbit CBP or p300 antibody to each well (diluted 1:5000 in blocking buffer (5% BSA in TBST). CBP antibody: (D6C5) Rabbit mAb #7389; p300 antibody: (D8Z4E) Rabbit mAb #86377. Incubate overnight at 4° C. Wash 3 times with 300 uL TBST, each time on shaker for 5-10 min. Prepare goat anti-rabbit antibody conjugated to HRP (1/100K dilution in blocking buffer) Invitrogen Catalog number: 32260. Add 75 μL of HRP-conjugated goat anti-rabbit antibody. Incubate at room temperature for 1 hour. Flick out the HRP-antibody mixture. Wash 7-8 times with TBST, each time on shaker for 10 min. Later washes try to overflow the wells so that no residual HRP remains bound to the sides of the well. Prepare and add 75 uL/well of QuantaRed Enhance Chemifluorescent HRP Substrate solution. Immediately read fluorescence on BMG ClarioStar (ex: 570/em 585), and repeat the read in 5 minutes and 15 minutes.
On the technique in general: An ELISA detects its analyte on a solid surface through an enzyme-linked reagent.
For orientation: EC50 means the concentration giving half of the maximal effect. A high value points to weaker potency. `CC(=O)N1CCc2c(c(N3CCCc4cc(-c5cnn(C)c5)c(C(F)F)cc43)nn2C2CCN(C3CC(C#Cc4ncc(C(=O)NC5C(C)(C)C(Oc6ccc(C#N)c(Cl)c6)C5(C)C)cn4)C3)CC2)C1` (centres unmarked) [Compound 295, 2-[2-[3-[4-[5-acetyl-3-[7-(difluoromethyl)-6-(1-methylpyrazol-4-yl)-3,4-dihydro-2H-quinolin-1-yl]-6,7-dihydro-4H-pyrazolo[4,3-c]pyridin-1-yl]-1-piperidyl]cyclobutyl]ethynyl]-N-[3-(3-chloro-4-cyano-phenoxy)-2,2,4,4-tetramethyl-cyclobutyl]pyrimidine-5-carboxamide]: the EC50 was below 1 nM. As to `COc1cc(OC2C(C)(C)C(NC(=O)c3ccc(N4CCC(C5CCC(n6nc(N7CCCc8cc(-c9cnn(C)c9)c(C(F)F)cc87)c7c6CCN(C(C)=O)C7)CC5)CC4)cc3)C2(C)C)ccc1C#N` (centres unmarked) [Compound 258, 4-[4-[4-[5-acetyl-3-[7-(difluoromethyl)-6-(1-methylpyrazol-4-yl)-3,4-dihydro-2H-quinolin-1-yl]-6,7-dihydro-4H-pyrazolo[4,3-c]pyridin-1-yl]cyclohexyl]-1-piperidyl]-N-[3-(4-cyano-3-methoxy-phenoxy)-2,2,4,4-tetramethyl-cyclobutyl]benzamide], the 50% effective concentration (EC50) was 1 to 10 nM. For the compound `COc1cc(OC2C(C)(C)C(NC(=O)c3ccc(N4CC(N5CCCC6(CCC(n7nc(N8CCCc9cc(-c%10cnn(C)c%10)c(C(F)F)cc98)c8c7CCN(C(C)=O)C8)CC6)C5)C4)cc3)C2(C)C)ccc1C#N` (centres unmarked) [Compound 416, 4-[3-[9-[5-acetyl-3-[7-(difluoromethyl)-6-(1-methylpyrazol-4-yl)-3,4-dihydro-2H-quinolin-1-yl]-6,7-dihydro-4Hpyrazolo[4,3-c]pyridin-1-yl]-2-azaspiro[5.5]undecan-2-yl]azetidin-1-yl]-N-[3-(4-cyano-3-methoxy-phenoxy)-2,2,4,4-tetramethyl-cyclobutyl]benzamide], the concentration for a half-maximal effect (EC50) was in the range of 1 to 10 nM. The compound `CC(=O)N1CCc2c(c(N3CCCc4cc(-c5cnn(C)c5)c(C(F)F)cc43)nn2C2CCC(N(C)C3CCN(c4ncc(C(=O)NC5C(C)(C)C(Oc6ccc(C#N)c(Cl)c6)C5(C)C)cn4)CC3)CC2)C1` (centres unmarked) [Compound 282, 2-[4-[[4-[5-acetyl-3-[7-(difluoromethyl)-6-(1-methylpyrazol-4-yl)-3,4-dihydro-2H-quinolin-1-yl]-6,7-dihydro-4H-pyrazolo[4,3-c]pyridin-1-yl]cyclohexyl]-methyl-amino]-1-piperidyl]-N-[3-(3-chloro-4-cyano-phenoxy)-2,2,4,4-tetramethyl-cyclobutyl]pyrimidine-5-carboxamide] returned an EC50 below 1 nM. For `CC(=O)N1CCc2c(c(-c3cccc4cc(-c5ccc(C(=O)N6CCC(OCc7ncc(C(=O)NC8C(C)(C)C(Oc9ccc(C#N)c(Cl)c9)C8(C)C)cn7)C6)nc5)ncc34)nn2C2CCOCC2)C1` (racemic) [Compound 131, N-[3-(3-chloro-4-cyano-phenoxy)-2,2,4,4-tetramethyl-cyclobutyl]-2-[[rac-(3S)-1-[5-[8-(5-acetyl-1-tetrahydropyran-4-yl-6,7-dihydro-4H-pyrazolo[4,3-c]pyridin-3-yl)-3-isoquinolyl]pyridine-2-carbonyl]pyrrolidin-3-yl]oxymethyl]pyrimidine-5-carboxamide], the EC50 was below 1 nM. The compound `CC(=O)N1CCc2c(c(N3CCCc4cc(-c5cnn(C)c5)c(C(F)F)cc43)nn2C2CCC(N3CCN(c4ncc(C(=O)NC5C(C)(C)C(Oc6ccc(C#N)c(Cl)c6)C5(C)C)cn4)CC3)CC2)C1` (centres unmarked) [Compound 391, 2-[4-[4-[5-acetyl-3-[7-(difluoromethyl)-6-(1-methylpyrazol-4-yl)-3,4-dihydro-2H-quinolin-1-yl]-6,7-dihydro-4H-pyrazolo[4,3-c]pyridin-1-yl]cyclohexyl]piperazin-1-yl]-N-[3-(3-chloro-4-cyano-phenoxy)-2,2,4,4-tetramethyl-cyclobutyl]pyrimidine-5-carboxamide] displayed an EC50 below 1 nM.

As to `CC(=O)N1CCc2c(c(N3CCCc4cc(-c5cnn(C)c5)c(C(F)F)cc43)nn2C2CN(C(=O)C3CCN(c4ncc(C(=O)NC5C(C)(C)C(Oc6ccc(C#N)c(Cl)c6)C5(C)C)cn4)CC3)C2)C1` (centres unmarked) [Compound 119, 2-[4-[3-[5-acetyl-3-[7-(difluoromethyl)-6-(1-methylpyrazol-4-yl)-3,4-dihydro-2H-quinolin-1-yl]-6,7-dihydro-4H-pyrazolo[4,3-c]pyridin-1-yl]azetidine-1-carbonyl]-1-piperidyl]-N-[3-(3-chloro-4-cyano-phenoxy)-2,2,4,4-tetramethyl-cyclobutyl]pyrimidine-5-carboxamide], the EC50 was below 1 nM. In the case of `CC(=O)N1CCc2c(c(N3CCCc4cnccc43)nn2C2CCN(CC3CCN(c4ncc(C(=O)NC5C(C)(C)C(Oc6ccc(C#N)c(Cl)c6)C5(C)C)cn4)CC3)CC2)C1` (centres unmarked) [Compound 157, 2-[4-[[4-[5-acetyl-3-(3,4-dihydro-2H-1,6-naphthyridin-1-yl)-6,7-dihydro-4H-pyrazolo[4,3-c]pyridin-1-yl]-1-piperidyl]methyl]-1-piperidyl]-N-[3-(3-chloro-4-cyano-phenoxy)-2,2,4,4-tetramethyl-cyclobutyl]pyrimidine-5-carboxamide], the EC50 is below 1 nM. In turn, `COc1cc(OC2C(C)(C)C(NC(=O)c3ccc(N4CC5(CCC(N6CCC(n7nc(N8CCCc9cc(-c%10cnn(C)c%10)c(C(F)F)cc98)c8c7CCN(C(C)=O)C8)CC6)C5)C4)cc3)C2(C)C)ccc1C#N` (centres unmarked) [Compound 345, 4-[6-[4-[5-acetyl-3-[7-(difluoromethyl)-6-(1-methylpyrazol-4-yl)-3,4-dihydro-2H-quinolin-1-yl]-6,7-dihydro-4H-pyrazolo[4,3-c]pyridin-1-yl]-1-piperidyl]-2-azaspiro[3.4]octan-2-yl]-N-[3-(4-cyano-3-methoxy-phenoxy)-2,2,4,4-tetramethyl-cyclobutyl]benzamide] had an EC50 below 1 nM. For the compound `CC(=O)N1CCc2c(c(N3CCCc4cc(-c5cnn(C)c5)c(C)cc43)nn2C2CN(CCC3CCN(c4ncc(C(=O)NC5C(C)(C)C(Oc6ccc(C#N)c(Cl)c6)C5(C)C)cn4)CC3)C2)C1` (centres unmarked) [Compound 160, 2-[4-[2-[3-[5-acetyl-3-[7-methyl-6-(1-methylpyrazol-4-yl)-3,4-dihydro-2H-quinolin-1-yl]-6,7-dihydro-4H-pyrazolo[4,3-c]pyridin-1-yl]azetidin-1-yl]ethyl]-1-piperidyl]-N-[3-(3-chloro-4-cyano-phenoxy)-2,2,4,4-tetramethyl-cyclobutyl]pyrimidine-5-carboxamide], the EC50 was above 100 nM. Next, `CC(=O)N1CCc2c(c(N3CCCc4cc(-c5cnn(C)c5)c(C(F)F)cc43)nn2C2CCC3(CC2)CCN(c2ncc(C(=O)NC4C(C)(C)C(Oc5ccc(C#N)c(Cl)c5)C4(C)C)cn2)C3)C1` (centres unmarked) [Compound 408, 2-[8-[5-acetyl-3-[7-(difluoromethyl)-6-(1-methylpyrazol-4-yl)-3,4-dihydro-2H-quinolin-1-yl]-6,7-dihydro-4H-pyrazolo[4,3-c]pyridin-1-yl]-2-azaspiro[4.5]decan-2-yl]-N-[3-(3-chloro-4-cyano-phenoxy)-2,2,4,4-tetramethyl-cyclobutyl]pyrimidine-5-carboxamide]: above 100 nM.
